From patent publication US8815857B2 (Boehringer Ingelheim International GmbH, priority 2011, dated 2014) come the findings set out here.

The target of data set [1] is T1, human soluble guanylate cyclase alpha 1 and beta 1 subunits (sGC) stably expressed in Chinese hamster ovary cells (Homo sapiens, UniProt Q02108+Q02153).
T1 construct: expressed in transfected cells; host or cells: Chinese hamster ovary cells, stably transfected
T1 sequence (Q02108 1-690 partner): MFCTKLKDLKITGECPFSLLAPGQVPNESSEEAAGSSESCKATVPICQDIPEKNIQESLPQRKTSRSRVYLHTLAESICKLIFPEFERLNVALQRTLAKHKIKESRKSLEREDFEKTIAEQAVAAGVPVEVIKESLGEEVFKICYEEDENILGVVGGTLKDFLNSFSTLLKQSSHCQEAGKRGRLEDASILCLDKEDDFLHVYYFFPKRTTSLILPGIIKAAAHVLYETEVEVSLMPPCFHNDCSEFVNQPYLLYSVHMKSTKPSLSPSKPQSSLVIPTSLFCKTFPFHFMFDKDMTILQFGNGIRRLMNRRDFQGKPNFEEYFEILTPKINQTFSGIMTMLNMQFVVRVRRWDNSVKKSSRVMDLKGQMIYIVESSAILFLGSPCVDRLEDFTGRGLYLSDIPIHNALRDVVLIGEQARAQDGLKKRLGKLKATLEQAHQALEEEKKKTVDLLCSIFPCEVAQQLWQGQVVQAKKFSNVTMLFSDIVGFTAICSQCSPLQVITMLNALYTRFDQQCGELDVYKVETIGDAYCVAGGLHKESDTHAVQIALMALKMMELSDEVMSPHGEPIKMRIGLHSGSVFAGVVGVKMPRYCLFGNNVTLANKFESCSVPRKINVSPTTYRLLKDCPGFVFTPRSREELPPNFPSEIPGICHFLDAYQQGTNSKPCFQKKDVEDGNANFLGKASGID
T1 sequence (Q02153 1-619): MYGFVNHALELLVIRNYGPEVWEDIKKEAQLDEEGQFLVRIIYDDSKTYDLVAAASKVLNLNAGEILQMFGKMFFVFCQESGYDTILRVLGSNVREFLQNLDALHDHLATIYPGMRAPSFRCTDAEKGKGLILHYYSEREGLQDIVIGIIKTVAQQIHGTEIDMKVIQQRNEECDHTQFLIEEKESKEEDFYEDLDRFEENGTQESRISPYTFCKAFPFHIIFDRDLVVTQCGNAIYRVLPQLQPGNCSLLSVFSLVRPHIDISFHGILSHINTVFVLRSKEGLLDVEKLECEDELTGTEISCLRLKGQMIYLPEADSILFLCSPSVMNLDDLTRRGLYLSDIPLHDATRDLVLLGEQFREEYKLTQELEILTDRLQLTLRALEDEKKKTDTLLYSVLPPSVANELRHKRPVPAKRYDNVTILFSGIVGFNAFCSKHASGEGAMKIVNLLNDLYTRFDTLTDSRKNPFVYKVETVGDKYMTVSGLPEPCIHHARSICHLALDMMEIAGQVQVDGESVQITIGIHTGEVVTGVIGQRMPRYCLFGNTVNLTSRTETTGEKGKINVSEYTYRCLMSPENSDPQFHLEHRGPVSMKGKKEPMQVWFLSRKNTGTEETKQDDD
The data set can be described thus: sGC cellular activator assay: cGMP in CHO cells expressing human sGC, preincubated with ODQ. The class given is cell-based. The conditions noted are these: 40 microM ODQ preincubation, 30 min at room temperature, presence or absence of 50% human serum not given, read-out: EC50 nM, Activity of Compounds in Cellular Assay. In a few lines:
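EC50 values derive from HTRF cGMP measurement after test compounds act for thirty minutes at room temperature, with or without 50% human serum. Before dosing, the sGC-transfected CHO cells spend one hour with the inhibitor ODQ (40 microM) in IBMX- and 0.1% BSA-containing buffer.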

Data set [2] is described as follows: Assessment of solubility: HT solubility in pION buffer, UV spectrophotometry. The following applies: kinetic from dmso stock.
Where [3] appears, read: pH 6.8, aqueous buffer, Solubility (pH 6.8), pH 6.8.
The mark [4] stands for this setting: pION system solution buffer, pH 4.5, pH 4.5, aqueous buffer, Solubility (pH 4.5), pH 4.5 buffer, 16-19 h incubation, 1.0% DMSO.
Where [5] appears, read: pION system solution buffer, pH 7.4, pH 7.4, aqueous buffer, Solubility (pH 7.4), pH 7.4 buffer, 16-19 h incubation, 1.0% DMSO.

SMILES strings stand for the structures. Values after ≈ are worked out from the molar mass of the structure shown. Where only a bound is given, the exact number is not on record here.

Take `Cc1ccc(OCc2ccc(CN3CCN(C)C(=O)C3)cc2C)c(-c2csc(N3CC4CCC(C3)C4C(=O)O)n2)c1` (centres unmarked) [Compound 289]: in data set [1], the EC50 (usually the midpoint of the concentration-response curve) came out at 3.4 nM. Also, the solubility – broadly, the dissolved amount per volume that the medium holds – in data set [2] (setting [3]) amounted to 35 µg/mL (≈ 60.9 µM); in data set [2] (setting [4]), 1.5 µg/mL (≈ 2.61 µM).
For `Cc1ccc(OCc2ccc(C(=O)N3CCC(O)CC3)cc2C)c(-c2csc(N3C[C@H]4CC[C@@H](C3)[C@H]4C(=O)O)n2)c1` [Compound 301], in data set [1], the concentration giving a half-maximal response (EC50) was determined as 57 nM. Further, the solubility amounted to 65 µg/mL (≈ 113 µM) in data set [2] (setting [3]) and 0.24 µg/mL (≈ 0.417 µM) in data set [2] (setting [4]).
For `Cc1ccc(OCc2ccc(C(=O)N3CCC(C#N)CC3)cc2C)c(-c2csc(N3C[C@H]4CC[C@@H](C3)[C@H]4C(=O)O)n2)c1` [Compound 323], in that order: 51 nM, 39 µg/mL (≈ 66.7 µM) and less than 0.1 µg/mL.
For `CCN(C)C(=O)c1ccc(COc2ccc(C)cc2-c2csc(N3C[C@H]4CC[C@@H](C3)[C@H]4C(=O)O)n2)c(C)c1` [Compound 303], in that order: 11 nM, 36 µg/mL (≈ 67.5 µM) and 0.13 µg/mL (≈ 0.244 µM).
For `Cc1ccc(OCc2ccc(CN3CCS(=O)(=O)CC3)cc2C)c(-c2csc(N3C[C@@H]4[C@H](C3)[C@@H]4C(=O)O)n2)c1` [Compound 244] the same measures were 180 nM, 65 µg/mL (≈ 114 µM) and 2.6 µg/mL (≈ 4.58 µM).
As for `Cc1ccc(OCc2ccc(CN3CCO[C@H](C)C3)cc2C#N)c(-c2csc(N3C[C@H]4CC[C@@H](C3)[C@H]4C(=O)O)n2)c1` [Compound 357], in data set [1], the EC50 was 24 nM. Further, the solubility in data set [2] (setting [3]) worked out at 11 µg/mL (≈ 19.2 µM); in data set [2] (setting [4]) it was 2.3 µg/mL (≈ 4.02 µM).
Turning to `Cc1ccc(OCc2ccc(CN3CCOCC3)cc2C)c(-c2csc(N3CC4(CC4C(=O)O)C3)n2)c1` (centres unmarked) [Compound 257], in data set [1], the EC50 amounted to 540 nM. Besides, the solubility in data set [2] (setting [3]) stood at 45 µg/mL (≈ 86.6 µM); in data set [2] (setting [4]) it was 56 µg/mL (≈ 108 µM).
For `Cc1ccc(OCc2ccc(C(=O)N(C)CCN(C)C)cc2C)c(-c2csc(N3C[C@H]4CC[C@@H](C3)[C@H]4C(=O)O)n2)c1` [Compound 305], in that order: 140 nM, 67 µg/mL (≈ 116 µM) and 62 µg/mL (≈ 107 µM).
`Cc1ccc(OCc2ccc(C(=O)N(C)CC(=O)N(C)C)cc2C)c(-c2csc(N3C[C@H]4CC[C@@H](C3)[C@H]4C(=O)O)n2)c1` [Compound 345]: the half-maximal effective concentration (EC50) in data set [1] was 130 nM. The solubility in data set [2] (setting [3]) is 66 µg/mL (≈ 112 µM); in data set [2] (setting [4]) it was 4 µg/mL (≈ 6.77 µM); in data set [2] (setting [5]) it was greater than 58 µg/mL.
For `Cc1ccc(OCc2ccc(C(=O)N3CCOCC3)cc2C)c(-c2csc(N3C[C@H]4CC[C@@H](C3)[C@H]4C(=O)O)n2)c1` [Compound 268] the same measures were 7.3 nM, 70 µg/mL (≈ 125 µM), less than 0.1 µg/mL and 38 µg/mL (≈ 67.7 µM).
Take `Cc1ccc(OCc2ccc(C(=O)N3CCCCC3)c(C)c2)c(-c2csc(N3C[C@H]4CC[C@@H](C3)[C@H]4C(=O)O)n2)c1` [Compound 283]: in data set [1], the concentration for a half-maximal effect (EC50) turned out to be 60 nM. For the same compound, the solubility in data set [2] (setting [3]) is 0.1 µg/mL (≈ 0.179 µM); in data set [2] (setting [4]), less than 0.1 µg/mL.
`Cc1ccc(OCc2ccc(C(=O)N3CC[C@H](O)C3)cc2C)c(-c2csc(N3C[C@H]4CC[C@@H](C3)[C@H]4C(=O)O)n2)c1` [Compound 313]: the EC50 in data set [1] came to 120 nM. The solubility in data set [2] (setting [3]) was 78 µg/mL (≈ 139 µM); in data set [2] (setting [4]) it was 1.3 µg/mL (≈ 2.31 µM).
For `Cc1ccc(OCc2ccc(C(=O)N3CC[C@@H](N(C)C)C3)cc2C)c(-c2csc(N3C[C@H]4CC[C@@H](C3)[C@H]4C(=O)O)n2)c1` [Compound 310] the same measures were 99 nM, 61 µg/mL (≈ 104 µM) and 59 µg/mL (≈ 100 µM).
For `Cc1ccc(OCc2ccc(CN3CCS(=O)(=O)CC3)cc2C)c(-c2csc(N3CC4(CC4C(=O)O)C3)n2)c1` (centres unmarked) [Compound 252], in that order: 260 nM, 0.2 µg/mL (≈ 0.352 µM) and less than 0.1 µg/mL.
For `Cc1ccc(OCc2ccc(C(=O)N3CCOCC3)cc2C#N)c(-c2csc(N3C[C@H]4CC[C@@H](C3)[C@H]4C(=O)O)n2)c1` [Compound 266, 3-(4-{2-[2-cyano-4-(morpholine-4-carbonyl)-benzyloxy]-5-methyl-phenyl}-thiazole-2-yl)-3-aza-bicyclo[3.2.1]octane-8(syn)-carboxylic acid] the same measures were 42 nM, 70 µg/mL (≈ 122 µM) and 0.48 µg/mL (≈ 0.838 µM).
For the compound `COc1cc(CN2CCOCC2)ccc1COc1ccc(C)cc1-c1csc(N2CCC(C(=O)O)CC2)n1` [Compound 278], the EC50 in data set [1] was 51 nM. Besides, the figures for the solubility in data set [2] (setting [4]) and in data set [2] (setting [5]) were greater than 53 µg/mL and 30 µg/mL (≈ 55.8 µM), respectively.
Take `CCCC1(C(=O)O)C2CCC1CN(c1nc(-c3cc(C)ccc3OCc3ccc(C(=O)N4CCCCC4)cc3C)cs1)C2` (centres unmarked) [Compound 262]: the EC50 in data set [1] is 980 nM. Moreover, the solubility in data set [2] (setting [3]) was 12 µg/mL (≈ 19.9 µM); in data set [2] (setting [4]), less than 0.1 µg/mL.
For `Cc1ccc(OCc2ccc(CN3CCS(=O)(=O)CC3)cc2C)c(-c2csc(N3CCCC(C)(C(=O)O)CC3)n2)c1` (centres unmarked) [Compound 230] the same measures were 120 nM, 0.95 µg/mL (≈ 1.59 µM) and less than 0.1 µg/mL.
For `Cc1ccc(OCc2ccc(C(=O)N3CCCCC3)cc2C)c(-c2csc(N3C[C@@H]4[C@H](C3)[C@@H]4C(=O)O)n2)c1` [Compound 243], in that order: 180 nM, 61 µg/mL (≈ 115 µM) and 1.2 µg/mL (≈ 2.26 µM).
For `Cc1ccc(OCc2ccc(C(=O)N3CCCC(C#N)C3)cc2C)c(-c2csc(N3C[C@H]4CC[C@@H](C3)[C@H]4C(=O)O)n2)c1` (some centres unmarked) [Compound 337], in that order: 14 nM, 1.5 µg/mL (≈ 2.57 µM) and less than 0.1 µg/mL.
Consider `Cc1ccc(OCc2ccc(CN3CCOC(C)C3)cc2C#N)c(-c2csc(N3C[C@H]4CC[C@@H](C3)[C@H]4C(=O)O)n2)c1` (some centres unmarked) [Compound 238], for which, in data set [1], the EC50 was 39 nM. The solubility in data set [2] (setting [3]) stood at 5.2 µg/mL (≈ 9.08 µM); in data set [2] (setting [4]), 4.9 µg/mL (≈ 8.56 µM).
Turning to `Cc1ccc(OCc2ccc(C(=O)N(C)Cc3ccn(C)n3)cc2C)c(-c2csc(N3C[C@H]4CC[C@@H](C3)[C@H]4C(=O)O)n2)c1` [Compound 343], the EC50 in data set [1] came to 46 nM. In addition, the solubility in data set [2] (setting [3]) is 52 µg/mL (≈ 86.7 µM); in data set [2] (setting [4]), less than 0.1 µg/mL.
Consider `Cc1ccc(OCc2ccc(C(=O)N3CCCCC3)cc2C#N)c(-c2csc(N3C[C@H]4CC[C@@H](C3)[C@H]4C(=O)O)n2)c1` [Compound 263], for which the EC50 in data set [1] stood at 13 nM. Moreover, the solubility in data set [2] (setting [3]) came to 58 µg/mL (≈ 102 µM); in data set [2] (setting [4]), 0.3 µg/mL (≈ 0.526 µM).
Take `Cc1ccc(OCc2c(C)cc(C(=O)N3CCCCC3)cc2C)c(-c2csc(N3C[C@H]4CC[C@@H](C3)[C@H]4C(=O)O)n2)c1` [Compound 282]: in data set [1], the EC50 amounted to 39 nM. Also, the solubility in data set [2] (setting [3]) was 0.89 µg/mL (≈ 1.55 µM); in data set [2] (setting [4]), less than 0.1 µg/mL.
For `CCN1CCN(Cc2ccc(COc3ccc(C)cc3-c3csc(N4CC5CCC(C4)C5C(=O)O)n3)c(C)c2)CC1=O` (centres unmarked) [Compound 291] the same measures were 7.6 nM, 13 µg/mL (≈ 22.1 µM) and 0.18 µg/mL (≈ 0.306 µM).
With `CC[C@]1(C(=O)O)[C@@H]2CC[C@H]1CN(c1nc(-c3cc(C)ccc3OCc3ccc(C(=O)N4CCCCC4)cc3C)cs1)C2` [Compound 250, 8-ethyl-3-(4-{5-methyl-2-[2-methyl-4-(piperidine-1-carbonyl)-benzyloxy]-phenyl}-thiazole-2-yl)-3-aza-bicyclo[3.2.1]octane-8(syn)-carboxylic acid], in data set [1], the EC50 was found to be 140 nM. Also, the solubility in data set [2] (setting [3]) is 13 µg/mL (≈ 22.1 µM); in data set [2] (setting [4]), less than 0.1 µg/mL.
